From patent EP4806435A1, “DIHYDROCHROMENE-DERIVATIVE-CONTAINING THERAPEUTIC AGENT FOR CANCER” (Sumitomo Pharma Co., Ltd., priority 2023, dated 2025)

Legend:
[1] = test system: U-87 cells; test: Cytotoxicity assay of metabolites under sphere culture conditions (ATP); assay type: cell-based; details: Homo sapiens, U-87 MG, 168 h, 7 days in sphere medium, read-out: IC50 (cytotoxicity, cell viability by ATP)
Protocol: U-87 cells were cultured for 7 days in sphere medium in the presence of metabolites M2, M4, and M5, respectively. After culture, cellular ATP levels were quantified as an indicator of cell viability, and cell viability was calculated in the same manner as in Example 12 to compare cytotoxicity.

[2] = test system: non-human primate; test: 4-week non-human primate toxicity study (GLP); assay type: in vivo
Protocol: (§1) The initial starting dose of 20 mg/day (expressed as the present compound) was determined in accordance with the ICH S9 guideline of International Council for Harmonisation of Technical Requirements for Pharmaceuticals for Human Use (ICH). Based on a 4-week mouse toxicity study conducted in compliance with Good Laboratory Practice (GLP), the dose causing severe toxicity in 10% of the test animals (STD10) was determined to be 50 mg/kg. Applying a safety factor of 10 and interspecies scaling, the starting dose for this first-in-human (FIH) study was calculated to be 0.4 mg/kg, corresponding to a fixed dose of 24 mg for a 60-kg human. In a 4-week non-human primate toxicity study conducted in compliance with Good Laboratory Practice (GLP), the highest non-severely toxic dose (HNSTD) was determined to be 7.5 mg/kg. Applying a safety factor of 6 and interspecies scaling, the starting dose in humans was estimated to be 0.4 mg/kg, corresponding to a fixed dose of 24 mg. The final recommended starting dose for the first-in-human (FIH) study was rounded to 20 mg/day.

[3] = test system: mouse; test: 4-week mouse toxicity study (GLP); assay type: in vivo
Protocol: as §1

[4] = test system: U-87 GBM xenografts; test: Tumor shrinkage in mice bearing U-87 GBM xenografts; assay type: in vivo
[5] = test system: U-87 cells (IDH1 wild-type); test: Cytotoxicity, sphere culture with LDL, combination with ezetimibe (ATP); assay type: cell-based, human; details: ezetimibe at 3.3, 10, or 30 µM; 7 days; LDL 5 µg/mL
Protocol: U-87 cells were cultured for 7 days in sphere medium supplemented with LDL at a concentration of 5 µg/mL, with either ezetimibe (a cholesterol absorption inhibitor) added at 3.3, 10, or 30 µM, Compound 1 added at 1 µM, or a combination of both agents. Cell viability was calculated in the same manner as in Example 12, and the cytotoxic effects of each treatment were compared between single-agent and combination conditions.

CC1(C)Oc2cc(Cl)ccc2[C@@H]2OCC3(CCNCC3)C[C@H]21 [Compound M4]
IC50 [1]: 1600 nM

CC1(C)Oc2cc(Cl)ccc2[C@@H]2OCC3(CCN(CCNC(=O)CNC=O)CC3)C[C@H]21 [Compound M2, N-2-[(4'aR,10'bR)-8'-chloro-5',5'-dimethyl-4'a,10'b-dihydro-2'H,4'H,5'H-spiro[piperidine-4,3'-pyrano[3,2-c][1]benzopyran]-1-yl]ethyl-N^2-formylglycinamide]
IC50 [1]: 3600 nM

CC1(C)Oc2cc(Cl)ccc2[C@@H]2OCC3(CCN(CCn4ccnc4)CC3)C[C@H]21 [the present compound, (4'aR,10'bR)-8'-chloro-1-[2-(1H-imidazol-1-yl)ethyl]-5',5'-dimethyl-4'a,10'b-dihydro-2'H,4'H,5'H-spiro[piperidine-4,3'-pyrano[3,2-c][1]benzopyran]]
highest non-severely toxic dose (HNSTD) [2]: 7.5 mg/kg
dose causing severe toxicity in 10% of the test animals (STD10) [3]: 50 mg/kg
minimum pharmacologically active dose in humans (human equivalent dose, HED) ([4]; HED of 3 mg/kg in mice bearing U-87 GBM xenografts): 15 mg
dose at which a consistent tumor shrinkage effect was observed ([4]; mice bearing U-87 GBM xenografts): 3 mg/kg

CC1(C)Oc2cc(Cl)ccc2[C@@H]2OCC3(CCN(CCO)CC3)C[C@H]21 [Compound M5, 2-[(4'aR,10'bR)-8'-chloro-5',5'-dimethyl-4'a,10'b-dihydro-2'H,4'H,5'H-spiro[piperidine-4,3'-pyrano[3,2-c][1]benzopyran]-1-yl]ethan-1-ol]
IC50 [1]: 2100 nM

O=C1[C@H](CC[C@H](O)c2ccc(F)cc2)[C@@H](c2ccc(O)cc2)N1c1ccc(F)cc1 [ezetimibe, reference compound]
cytotoxicity, single agent [5]: low cytotoxicity
